Reference: US8728506B2, “Durable pest repellent and pest repellent resin composition” (Toagosei Co., Ltd., priority 2009, dated 2014)

Columns and labels:
[1] = Heat resistance by thermal analysis (TG/DTA in air); type: physicochemical; details: temperature at which amount of supported chemical component is reduced by 1/3, 30-600° C., 20° C./min
Procedure: Furthermore, it was confirmed by thermal analysis that the supported N,N-diethyl-m-toluamide acquired heat resistance. The thermal analysis was carried out using a Model TG/DTA220 manufactured by Seiko Instruments under an air atmosphere, the measurement temperature was 30° C. to 600° C., and the rate of temperature increase was 20° C./min. Since the measurement is carried out in air, the overall heat resistance in air including vaporization and oxidative decomposition can be evaluated, and N,N-diethyl-m-toluamide that only adheres to the surface of a porous substance having a large specific surface area is subjected to oxidative decomposition at relatively low temperature and the weight decreases, whereas it is expected that N,N-diethyl-m-toluamide that is packed between layers of the inorganic layered compound without gaps is resistant to vaporization and oxidative decomposition and the weight will be maintained up to a higher temperature. […]

house dust mite [2] = test: Evaluation of repellency, anti-mite intrusion-prevention method JIS L 1920; type: in vivo; details: polyethylene plate, repellent chemical 0.3 %
Procedure: (§1) Plates molded after adding the pest repellents prepared in Examples 1-1 to 1-10 and Comparative Examples 1-1 to 1-14 and Comparative Reference Example 1-1 to a polyethylene resin (PE-NUC-8350 manufactured by Nippon Unicar Co., Ltd.) so that the pest repellent chemical was 0.3 mass % of the entire resin composition were cut into circles having a diameter of a little under 4 cm and subjected to a test for anti-mite properties. The test was carried by an intrusion-prevention method in accordance with JIS L 1920 ‘Testing methods for efficacy against house dust mite of textiles’. Plates molded after adding the durable pest repellents prepared in Examples 2-1 to 2-4, comparative pest repellents prepared in Comparative Examples 2-1 to 2-4, and Comparative Reference Example 2-1 to a polyethylene resin (PE-NUC-8350 manufactured by Nippon Unicar Co., Ltd.) so that the pest repellent chemical was 0.3 mass % of the entire resin composition were cut into circles having a diameter of a little under 4 cm and subjected to a test for anti-mite properties. The test was carried by an intrusion-prevention method in accordance with JIS L 1920 ‘Testing methods for efficacy against house dust mite of textiles’.

[3] = Evaluation of resin moldability (injection molding in polyethylene resin); type: physicochemical; details: repellent chemical 0.3 %, molding 250° C., residence 5 min
From the text: The durable pest repellents prepared in Examples 1-1 to 1-10, and the comparative pest repellents prepared in Comparative Examples 1-1 to 1-14 and Comparative Reference Example 1-1 were mixed with a polyethylene resin (PE-NUC-8350, Nippon Unicar Co., Ltd.). For example, in the durable pest repellent of Example 1-1, since the amount of pest repellent chemical supported was 3 mass %, when the amount of repellent added in a resin composition shown in Table 2 was 5%, the amount of pest repellent chemical added was calculated as 0.15 mass %, and when the amount of repellent added in the resin composition was 10%, the amount of pest repellent chemical added was calculated as 0.3 mass %.
Resin compositions were produced by adjusting the amount of each repellent added to the resin composition so that the amount of pest repellent chemical added in the resin composition was 0.3 mass %, 0.15%, and 0.6%, they were injection-molded into flat plates, and evaluation of whether kneading into the resin was possible was carried out. Molding was carried out using a Model M-50A(II)-DM manufactured by Meiki Co., Ltd. at a molding temperature of 250° C., thus giving 10 cm square plates having a thickness of 2 mm. Furthermore, the residence time was 5 minutes, and checks as to whether or not there was foaming, a strange smell, or discoloration during molding were carried out. […]
The durable pest repellents prepared in Examples 2-1 to 2-12, the comparative pest repellents prepared in Comparative Examples 2-1 to 2-4, and Comparative Reference Example 2-1 were mixed with a polyethylene resin (PE-NUC-8350, Nippon Unicar Co., Ltd.). For example, in the durable pest repellent of Example 2-1, since the amount of pest repellent chemical supported was 5 mass %, when the amount of repellent added in a resin composition shown in Table 4 was 3%, the amount of pest repellent chemical added was calculated as 0.15 mass %, and when the amount of repellent added in the resin composition was […], the amount of pest repellent chemical added was calculated as 0.3 mass %. […]

house dust mite [4] = test: Evaluation of persistence of repellence (after heating), JIS L 1920; type: in vivo; details: polyethylene plate, repellent chemical 0.3 %; held at 81° C. for 48 hours
Procedure: as §1, with “pest repellent component was 0.3” for “pest repellent chemical was 0.3”, “mass % were held in a dryer at 81° C. for 48 hours. They were cut” for “mass % of the entire resin composition were cut”, “2-1 to 2-12, the comparative pest” for “2-1 to 2-4, comparative pest”

Compound: CCN(CC)C(=O)c1cccc(C)c1 [Comp. Ref. Ex. 1-1, N,N-diethyl-m-toluamide]
- Heat resistance [1]: 180 °C
- Initial percentage repellence (house dust mite [2]): 21%
- Molding properties Bad smell [3]: Some
- Molding properties Coloration [3]: None
- Molding properties Foaming [3]: Some
- Post-heating percentage repellence (house dust mite [4]): 0%
